Assay results from ChEMBL document CHEMBL1153296, “Design and synthesis of novel tri-aryl CB2 selective cannabinoid ligands” (Bioorg Med Chem Lett, 2009).

Experiments:
Cannabinoid receptor 1 = Cannabinoid receptor 1 (Homo sapiens, UniProt P21554); assay: Binding affinity to human CB1 receptor transfected in HEK293 cells; type: cell-based
Homo sapiens = species on record: Homo sapiens; assay: Selectivity ratio of Ki for human CB1 receptor to Ki for human CB2 receptor
Cannabinoid receptor 2 = Cannabinoid receptor 2 (Homo sapiens, UniProt P34972); assay: Binding affinity to human CB2 receptor transfected in HEK293 cells; type: cell-based
Cannabinoid receptor 2, sequence (P34972 whole entry): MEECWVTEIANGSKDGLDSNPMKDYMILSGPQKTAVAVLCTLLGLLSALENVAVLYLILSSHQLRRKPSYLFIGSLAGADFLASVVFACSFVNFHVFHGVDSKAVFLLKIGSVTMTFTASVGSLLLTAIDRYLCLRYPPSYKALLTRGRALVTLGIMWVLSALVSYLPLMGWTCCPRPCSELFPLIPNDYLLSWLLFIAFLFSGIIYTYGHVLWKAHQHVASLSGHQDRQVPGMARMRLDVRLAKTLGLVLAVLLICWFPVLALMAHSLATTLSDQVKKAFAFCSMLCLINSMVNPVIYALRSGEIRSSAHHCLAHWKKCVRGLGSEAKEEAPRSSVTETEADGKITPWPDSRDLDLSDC

Cannabinoid receptor 1, sequence (P21554 whole entry): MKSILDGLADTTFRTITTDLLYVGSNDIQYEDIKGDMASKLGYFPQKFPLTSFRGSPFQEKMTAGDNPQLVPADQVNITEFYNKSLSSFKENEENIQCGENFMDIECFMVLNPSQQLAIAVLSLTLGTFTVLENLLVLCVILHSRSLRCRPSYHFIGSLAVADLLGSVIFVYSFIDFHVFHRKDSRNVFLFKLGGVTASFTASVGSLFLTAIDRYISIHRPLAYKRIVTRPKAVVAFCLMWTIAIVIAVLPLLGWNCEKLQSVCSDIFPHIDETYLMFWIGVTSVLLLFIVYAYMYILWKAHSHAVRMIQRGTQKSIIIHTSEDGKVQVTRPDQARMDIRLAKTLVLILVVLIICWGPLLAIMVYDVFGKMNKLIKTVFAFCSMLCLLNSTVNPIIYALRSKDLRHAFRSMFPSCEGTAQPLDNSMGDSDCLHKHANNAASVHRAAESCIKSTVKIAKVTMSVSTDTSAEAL

| Compound | Ki (Cannabinoid receptor 1) [nM] | Ratio Ki (Homo sapiens) | Ki (Cannabinoid receptor 2) [nM] |
| --- | --- | --- | --- |
| CC(C)(c1ccccc1)c1cc(O)c(-c2cc(Cl)cc(Cl)c2)c(O)c1 | 93.7 | 87.5 | 1.07 |
| COc1cc(C(=O)c2ccccc2)cc(O)c1-c1cc(Cl)cc(Cl)c1 | > 1000 | 210 | – |
| O=C(c1ccccc1)c1cc(O)c(-c2cc(Cl)cc(Cl)c2)c(O)c1 | – | 9.2 | – |
| COc1cc(C(O)c2ccccc2)cc(OC)c1-c1cc(Cl)cc(Cl)c1 (centres undefined) | > 1000 | 602 | – |
| CC1=CC[C@@H]2[C@@H](C1)c1c(O)cc(C(C)(C)c3ccccc3)cc1OC2(C)C | – | 13.5 | – |
